Test results from patent US20240180921A1, “CDK8/19 INHIBITORS FOR THE TREATMENT OF CYTOKINE STORM” (University of South Carolina, priority 2021, published 2024).

Key:
[1] = system: mouse cytokines: IL-1β, IL-6, IL-10, MCP-1 and TNF-α; test: LPS-induced cytokine expression in plasma of C57BL/6 mice (MSD U-plex custom panel); format: in vivo, C57BL/6 male mice; settings: 30 mg/kg oral gavage 2 hrs prior to LPS 10 mg/kg i.p.; plasma 2 hrs and 6 hrs after LPS
Description: Cytokine storm was induced in C57BL/6 male mice by intraperitoneal (i.p.) injection of LPS (10 mg/kg). Two groups of LPS-treated mice (n=5) received 30 mg/kg 15u dissolved in 30% Propylene Glycol, 70% PEG-400 or vehicle control (5 mice per group), via oral gavage 2 hrs prior to LPS dosing. Blood was collected immediately before LPS dosing, 2 hrs after LPS and 6 hrs after LPS (at which time point the animals were euthanized). Plasma samples (1:100 dilution for 2 hr and 6 hr samples, 1:5 dilution for pre-LPS samples) were used to analyze the cytokines with the MSD U-plex custom panel for the following mouse cytokines: IL-1β, IL-6, IL-10, MCP-1 and TNF-α.

48 human cytokines [2] = test: LPS-induced human cytokines in plasma of humanized mice (Human Cytokine 48-Plex Discovery Assay), Example 2; format: in vivo; settings: plasma 6 hrs after LPS
From the text: (§1) To test the effect of CDK8/19 inhibition on LPS-induced cytokine expression in human immune cells, we carried out a study on humanized mice transplanted with human hematopoietic stem cells; such mice contain human blood cells of myeloid and lymphoid lineages as well as mouse blood cells. We have used CIEA NOG-EXL mice (Taconic model #13395) engrafted with human umbilical cord blood-derived CD34+ hematopoietic stem cells 21 weeks before the study. All the mice were female, 25-27 weeks old, and had >45% hCD45+ cells in blood. Eight mice were treated with 1 mg/kg LPS i.p.; this dose was selected based on the finding of (38) that 12.5 μg (˜0.5 mg/kg) produced stronger cytokine induction than 50 μg (˜2 mg/kg) in humanized mice. The first group of LPS-treated mice (n=3) (G1) received vehicle alone by oral gavage 1 hr before LPS, the second group (n=3) received 15u at 30 mg/kg by oral gavage 1 hr before LPS, and the third group (n=2) (G3) received 15u at 30 mg/kg by oral gavage 0.5 hrs after LPS. Blood samples were collected from each mouse one week before LPS dosing. Mice were euthanized 6 hrs after LPS dosing and terminal blood samples were collected for cytokine analysis; in addition, spleens were collected for RNA analysis.
The effects of LPS and 15u on the expression of 48 human cytokines were measured using Human Cytokine 48-Plex Discovery Assay (Eve Technologies) using plasma samples at 1:100 dilution. […] The results of this analysis are shown in FIG. 2 for 33 of 48 cytokines that were induced by LPS>2-fold (cytokine plots are shown in the order of fold induction by LPS). […] These included 14 mediators of cytokine storm listed in Table 1: GM-CSF, IFN-γ, IL-1 (α and β), IL-6, IL-8, IL-12 (p40 and p70), IL-18, MIG/CXCL9, MIP-1 (α and β) and TNF (α and β).

32 mouse cytokines = test: LPS-induced mouse cytokines in plasma of humanized mice (Mouse Cytokine 32-Plex Discovery Assay), Example 2; format: in vivo, humanized CIEA NOG-EXL mice; settings: 30 mg/kg p.o. 1 hr before LPS; plasma 6 hrs after LPS
From the text: as §1
We have also used the same plasma samples (at 1:100 dilution) to measure the expression of 32 mouse cytokines using Mouse Cytokine 32-Plex Discovery Assay (Eve Technologies).

[3] = system: human cytokines associated with cytokine storm (Table 1); test: RNA-Seq of spleens of LPS-treated humanized mice, human cytokines associated with cytokine storm; format: in vivo, humanized CIEA NOG-EXL mice (human transcripts); settings: 6 hrs after LPS
From the text: as §1
(§2) RNA from spleens of mice of G1-3, euthanized 6 hrs after LPS dosing, was analyzed by RNA-Seq. […]

[4] = system: mouse cytokines associated with cytokine storm (Table 1); test: RNA-Seq of spleens of LPS-treated humanized mice, mouse cytokines associated with cytokine storm; format: in vivo, humanized CIEA NOG-EXL mice (mouse transcripts); settings: 6 hrs after LPS
From the text: as §1, §2

48 human cytokines [5] = test: LPS-induced human cytokines in plasma of humanized mice (Human Cytokine 48-Plex Discovery Assay), Example 3; format: in vivo; settings: for induction of human proinflammatory cytokines by LPS: 15u 30 mg/kg p.o. or BI-1347 10 mg/kg p.o., LPS 1 mg/kg i.p., plasma 6 hrs after LPS
Description: Mice were randomized into 6 groups (n=4-5), Group 1 being untreated control, Group 2 receiving 15u (a.k.a. SNX) (30 mg/kg p.o., administered as in example 2), Group 3 receiving LPS (1 mg/kg i.p.), Group 4 receiving LPS plus 15u administered 1 hr before LPS, Group 5 receiving LPS plus 15u administered 0.5 hr after LPS, and Group 6 receiving LPS plus CDK8/19 inhibitor BI-1347 (28) (10 mg/kg dissolved in 30% Propylene Glycol/70% PEG-400, p.o.) administered 1 hr before LPS. Mice were euthanized 6 hrs after LPS dosing and terminal blood samples were collected for cytokine analysis. As in Example 2, the effects of LPS and 15u on the expression of 48 human cytokines were measured using Human Cytokine 48-Plex Discovery Assay (Eve Technologies) using plasma samples at 1:100 dilution. The results of this analysis are shown in FIG. 5 for those cytokines that were induced by LPS. To assure more accurate assessment of effects of CDK8/19 inhibition on LPS-induced cytokines, 4 LPS-treated animals with low serum level (below 100 pg/mL) of IL-10, the cytokine whose LPS-mediated induction is not decreased by CDK8/19 inhibition, were excluded from the analysis (the low levels of cytokines in such animals are possibly due to insufficient administration of LPS). In this study, fewer cytokines (19 of 48) were induced by LPS than in Example 2, with many cytokines showing apparently higher expression levels in untreated mice possibly reflecting an inflammatory process that could have developed in humanized mice at the late time point (25-26 weeks) after the transplantation of CD34+ hematopoietic stem cells. Nevertheless, as in example 2, the induction of most of the LPS-induced cytokines was decreased by CDK8/19 inhibitor treatment (FIG. 5), including G-CSF, IFN-γ, IL-1 (α and β), IL-6, IL-8, MIG/CXCL9, MCP-1, MIP-1β and TNF (α and β) and IP-10. Among LPS-induced cytokines, only anti-inflammatory IL-10 was induced to a greater degree with than without CDK8/19 inhibitor treatment, an indication of anti-inflammatory activity. […]

panel of 468 kinases = settings: at 2000 nM, cited from earlier work

Row | SMILES | effect on LPS-induced expression of the assayed cytokines (IL-1β, IL-6, IL-10, MCP-1, TNF-α) [1] | number of the most strongly LPS-induced human cytokines whose induction was suppressed (48 human cytokines [2]; 30 mg/kg oral gavage 1 hr before LPS 1 mg/kg i.p.) | LPS-induced human IP-10 (48 human cytokines [2]; 30 mg/kg p.o. 1 hr before LPS) | LPS-induced human MCP-1 (48 human cytokines [2]; 30 mg/kg p.o. 1 hr before LPS) | LPS-induced human anti-inflammatory IL-10 (48 human cytokines [2]; 30 mg/kg p.o. 1 hr before LPS) | over-induction of human IL-10 (48 human cytokines [2]; 30 mg/kg p.o. 1 hr before LPS) | induction of 14 mediators of cytokine storm: GM-CSF, IFN-γ, IL-1 (α and β), IL-6, IL-8, IL-12 (p40 and p70), IL-18, MIG/CXCL9, MIP-1 (α and β), TNF (α and β) (48 human cytokines [2]; human cytokines, 30 mg/kg p.o. 1 hr before LPS) | LPS-induced mouse IL-7 (32 mouse cytokines) | LPS-induced mouse IL-10 (32 mouse cytokines) | effect on LPS-induced mouse cytokines (27 of 32 induced) (32 mouse cytokines) | number of human cytokines with decreased RNA amounts in spleen ([3]; 15u 30 mg/kg p.o. administered after LPS (G3) vs LPS alone (G1)) | number of human cytokines with decreased RNA amounts in spleen ([3]; 15u 30 mg/kg p.o. administered before LPS (G2) vs LPS alone (G1)) | number of mouse cytokines with decreased RNA in spleen ([4]; 15u-treated G2 or G3 relative to G1) | number of mouse cytokines (including TNF and IL-10) with elevated RNA in spleen ([4]; G2 and especially G3 relative to G1) | suppression of proinflammatory cytokine induction, 15u administered 0.5 hours after LPS compared with 1 hour before LPS (48 human cytokines [5]; 30 mg/kg p.o., in most cases) | induction of human proinflammatory cytokines by LPS (48 human cytokines [5]) | S(35) S-score (panel of 468 kinases; S(#)=(number of non-mutant kinases with % Ctrl<#)/(number tested)) | S(10) S-score (panel of 468 kinases)
1 | CN(C)C(=O)c1ccc(N2CCCN(c3ccnc4sc(C(N)=O)c(N)c34)CC2)cc1 [15u, 3-amino-4-(4-(4 (dimethylcarbamoyl)phenyl)-1,4-diazepan-1-yl)thieno[2,3-b]pyridine-2-carboxamide] | no significant effect | 24 of 27 | not inhibited | not inhibited | only borderline inhibition | not over-induced | suppressed | weakly inhibited | over-induced | most of them were unaffected | 15 of 26 | 18 of 26 | 3 of 27 | 7 | stronger | suppressed | less than 0.02 | < 0.004
2 | CN(C)C(=O)Cn1cc(-c2ccc(-c3cncc4ccccc34)cc2)cn1 [BI-1347, 2-(4-(4-(isoquinolin-4-yl)phenyl)-1H-pyrazol-1-yl)-N,N-dimethylacetamide, reference compound] |  |  |  |  |  |  |  |  |  |  |  |  |  |  |  | broadly suppressed |  | 
